In ChEMBL document CHEMBL1127066, “Discovery and structure-activity relationship of a series of 1-carba-1-dethiacephems exhibiting activity against methicillin-resistant Staphylococcus aureus” (J Med Chem, 1993):

tested on: Escherichia coli; assay: In vitro evaluation of antimicrobial activity against Escherichia coli EC14 strain; format: functional

Compound	MIC [µg/mL]
CCOc1nn(C)c(SC2=C(C(=O)[O-])N3C(=O)[C@@H](NC(=O)/C(=N/OCCF)c4csc(N)n4)[C@H]3CC2)nc1=O.[Na+]	0.5
Cn1ccnc1SC1=C(C(=O)[O-])N2C(=O)[C@@H](NC(=O)/C(=N/OCCF)c3csc(N)n3)[C@H]2CC1.[Na+]	0.5
Nc1nc(/C(=N\OCCF)C(=O)N[C@@H]2C(=O)N3C(C(=O)[O-])=C(Sc4nccs4)CC[C@H]23)cs1.[Na+]	0.125
Nc1nc(/C(=N\OCCF)C(=O)N[C@@H]2C(=O)N3C(C(=O)[O-])=C(Sc4nc(C(=O)O)cs4)CC[C@H]23)cs1.[Na+]	0.25
Nc1nc(/C(=N\OCCF)C(=O)N[C@@H]2C(=O)N3C(C(=O)[O-])=C(Sc4nc(-c5ccccc5)cs4)CC[C@H]23)cs1.[Na+]	0.25
Nc1nc(/C(=N\OCCF)C(=O)N[C@@H]2C(=O)N3C(C(=O)[O-])=C(Sc4nnc(O)c(O)n4)CC[C@H]23)cs1.[Na+]	0.06

tested on: Enterobacter cloacae; assay: In vitro evaluation of antimicrobial activity against Enterobacter cloacae EB5 strain; format: functional

Compound	MIC [µg/mL]
CCOc1nn(C)c(SC2=C(C(=O)[O-])N3C(=O)[C@@H](NC(=O)/C(=N/OCCF)c4csc(N)n4)[C@H]3CC2)nc1=O.[Na+]	2
Cn1ccnc1SC1=C(C(=O)[O-])N2C(=O)[C@@H](NC(=O)/C(=N/OCCF)c3csc(N)n3)[C@H]2CC1.[Na+]	4
Nc1nc(/C(=N\OCCF)C(=O)N[C@@H]2C(=O)N3C(C(=O)[O-])=C(Sc4nccs4)CC[C@H]23)cs1.[Na+]	1
Nc1nc(/C(=N\OCCF)C(=O)N[C@@H]2C(=O)N3C(C(=O)[O-])=C(Sc4nc(C(=O)O)cs4)CC[C@H]23)cs1.[Na+]	4
Nc1nc(/C(=N\OCCF)C(=O)N[C@@H]2C(=O)N3C(C(=O)[O-])=C(Sc4nc(-c5ccccc5)cs4)CC[C@H]23)cs1.[Na+]	1
Nc1nc(/C(=N\OCCF)C(=O)N[C@@H]2C(=O)N3C(C(=O)[O-])=C(Sc4nnc(O)c(O)n4)CC[C@H]23)cs1.[Na+]	0.5

tested on: Haemophilus influenzae; assay: In vitro antimicrobial activity against Haemophilus influenzae C.L. strain; format: functional

Compound	MIC [µg/mL]
CCOc1nn(C)c(SC2=C(C(=O)[O-])N3C(=O)[C@@H](NC(=O)/C(=N/OCCF)c4csc(N)n4)[C@H]3CC2)nc1=O.[Na+]	0.03
Cn1ccnc1SC1=C(C(=O)[O-])N2C(=O)[C@@H](NC(=O)/C(=N/OCCF)c3csc(N)n3)[C@H]2CC1.[Na+]	0.03
Nc1nc(/C(=N\OCCF)C(=O)N[C@@H]2C(=O)N3C(C(=O)[O-])=C(Sc4nccs4)CC[C@H]23)cs1.[Na+]	< 0.008
Nc1nc(/C(=N\OCCF)C(=O)N[C@@H]2C(=O)N3C(C(=O)[O-])=C(Sc4nc(C(=O)O)cs4)CC[C@H]23)cs1.[Na+]	0.015
Nc1nc(/C(=N\OCCF)C(=O)N[C@@H]2C(=O)N3C(C(=O)[O-])=C(Sc4nc(-c5ccccc5)cs4)CC[C@H]23)cs1.[Na+]	0.03
Nc1nc(/C(=N\OCCF)C(=O)N[C@@H]2C(=O)N3C(C(=O)[O-])=C(Sc4nnc(O)c(O)n4)CC[C@H]23)cs1.[Na+]	0.03

tested on: Klebsiella; assay: In vitro antimicrobial activity against Klebsiella X26 strain; format: functional

Compound	MIC [µg/mL]
CCOc1nn(C)c(SC2=C(C(=O)[O-])N3C(=O)[C@@H](NC(=O)/C(=N/OCCF)c4csc(N)n4)[C@H]3CC2)nc1=O.[Na+]	0.06
Cn1ccnc1SC1=C(C(=O)[O-])N2C(=O)[C@@H](NC(=O)/C(=N/OCCF)c3csc(N)n3)[C@H]2CC1.[Na+]	0.06
Nc1nc(/C(=N\OCCF)C(=O)N[C@@H]2C(=O)N3C(C(=O)[O-])=C(Sc4nccs4)CC[C@H]23)cs1.[Na+]	< 0.008
Nc1nc(/C(=N\OCCF)C(=O)N[C@@H]2C(=O)N3C(C(=O)[O-])=C(Sc4nc(C(=O)O)cs4)CC[C@H]23)cs1.[Na+]	0.25
Nc1nc(/C(=N\OCCF)C(=O)N[C@@H]2C(=O)N3C(C(=O)[O-])=C(Sc4nc(-c5ccccc5)cs4)CC[C@H]23)cs1.[Na+]	0.015
Nc1nc(/C(=N\OCCF)C(=O)N[C@@H]2C(=O)N3C(C(=O)[O-])=C(Sc4nnc(O)c(O)n4)CC[C@H]23)cs1.[Na+]	0.06

tested on: Pseudomonas aeruginosa; assay: Antimicrobial activity against Pseudomonas PS18 strain; format: functional

Compound	MIC [µg/mL]
CCOc1nn(C)c(SC2=C(C(=O)[O-])N3C(=O)[C@@H](NC(=O)/C(=N/OCCF)c4csc(N)n4)[C@H]3CC2)nc1=O.[Na+]	> 128
Cn1ccnc1SC1=C(C(=O)[O-])N2C(=O)[C@@H](NC(=O)/C(=N/OCCF)c3csc(N)n3)[C@H]2CC1.[Na+]	> 128
Nc1nc(/C(=N\OCCF)C(=O)N[C@@H]2C(=O)N3C(C(=O)[O-])=C(Sc4nccs4)CC[C@H]23)cs1.[Na+]	32
Nc1nc(/C(=N\OCCF)C(=O)N[C@@H]2C(=O)N3C(C(=O)[O-])=C(Sc4nc(C(=O)O)cs4)CC[C@H]23)cs1.[Na+]	128
Nc1nc(/C(=N\OCCF)C(=O)N[C@@H]2C(=O)N3C(C(=O)[O-])=C(Sc4nc(-c5ccccc5)cs4)CC[C@H]23)cs1.[Na+]	64
Nc1nc(/C(=N\OCCF)C(=O)N[C@@H]2C(=O)N3C(C(=O)[O-])=C(Sc4nnc(O)c(O)n4)CC[C@H]23)cs1.[Na+]	> 128

tested on: Pseudomonas aeruginosa; assay: In vitro antimicrobial activity against Pseudomonas X239 strain; format: functional

Compound	MIC [µg/mL]
CCOc1nn(C)c(SC2=C(C(=O)[O-])N3C(=O)[C@@H](NC(=O)/C(=N/OCCF)c4csc(N)n4)[C@H]3CC2)nc1=O.[Na+]	128
Cn1ccnc1SC1=C(C(=O)[O-])N2C(=O)[C@@H](NC(=O)/C(=N/OCCF)c3csc(N)n3)[C@H]2CC1.[Na+]	> 128
Nc1nc(/C(=N\OCCF)C(=O)N[C@@H]2C(=O)N3C(C(=O)[O-])=C(Sc4nccs4)CC[C@H]23)cs1.[Na+]	128
Nc1nc(/C(=N\OCCF)C(=O)N[C@@H]2C(=O)N3C(C(=O)[O-])=C(Sc4nc(C(=O)O)cs4)CC[C@H]23)cs1.[Na+]	> 128
Nc1nc(/C(=N\OCCF)C(=O)N[C@@H]2C(=O)N3C(C(=O)[O-])=C(Sc4nc(-c5ccccc5)cs4)CC[C@H]23)cs1.[Na+]	8
Nc1nc(/C(=N\OCCF)C(=O)N[C@@H]2C(=O)N3C(C(=O)[O-])=C(Sc4nnc(O)c(O)n4)CC[C@H]23)cs1.[Na+]	> 128

tested on: Staphylococcus epidermidis; assay: In vitro antimicrobial activity against Staphylococcus epidermidis 222 strain; format: functional

Compound	MIC [µg/mL]
CCOc1nn(C)c(SC2=C(C(=O)[O-])N3C(=O)[C@@H](NC(=O)/C(=N/OCCF)c4csc(N)n4)[C@H]3CC2)nc1=O.[Na+]	4
Cn1ccnc1SC1=C(C(=O)[O-])N2C(=O)[C@@H](NC(=O)/C(=N/OCCF)c3csc(N)n3)[C@H]2CC1.[Na+]	8
Nc1nc(/C(=N\OCCF)C(=O)N[C@@H]2C(=O)N3C(C(=O)[O-])=C(Sc4nccs4)CC[C@H]23)cs1.[Na+]	0.5
Nc1nc(/C(=N\OCCF)C(=O)N[C@@H]2C(=O)N3C(C(=O)[O-])=C(Sc4nc(C(=O)O)cs4)CC[C@H]23)cs1.[Na+]	4
Nc1nc(/C(=N\OCCF)C(=O)N[C@@H]2C(=O)N3C(C(=O)[O-])=C(Sc4nc(-c5ccccc5)cs4)CC[C@H]23)cs1.[Na+]	0.25
Nc1nc(/C(=N\OCCF)C(=O)N[C@@H]2C(=O)N3C(C(=O)[O-])=C(Sc4nnc(O)c(O)n4)CC[C@H]23)cs1.[Na+]	8

tested on: Staphylococcus epidermidis; assay: In vitro antimicrobial activity against Staphylococcus epidermidis 270 strain; format: functional

Compound	MIC [µg/mL]
CCOc1nn(C)c(SC2=C(C(=O)[O-])N3C(=O)[C@@H](NC(=O)/C(=N/OCCF)c4csc(N)n4)[C@H]3CC2)nc1=O.[Na+]	16
Cn1ccnc1SC1=C(C(=O)[O-])N2C(=O)[C@@H](NC(=O)/C(=N/OCCF)c3csc(N)n3)[C@H]2CC1.[Na+]	32
Nc1nc(/C(=N\OCCF)C(=O)N[C@@H]2C(=O)N3C(C(=O)[O-])=C(Sc4nccs4)CC[C@H]23)cs1.[Na+]	4
Nc1nc(/C(=N\OCCF)C(=O)N[C@@H]2C(=O)N3C(C(=O)[O-])=C(Sc4nc(C(=O)O)cs4)CC[C@H]23)cs1.[Na+]	8
Nc1nc(/C(=N\OCCF)C(=O)N[C@@H]2C(=O)N3C(C(=O)[O-])=C(Sc4nc(-c5ccccc5)cs4)CC[C@H]23)cs1.[Na+]	0.5
Nc1nc(/C(=N\OCCF)C(=O)N[C@@H]2C(=O)N3C(C(=O)[O-])=C(Sc4nnc(O)c(O)n4)CC[C@H]23)cs1.[Na+]	32

tested on: Staphylococcus aureus; assay: In vitro antimicrobial activity against Staphylococcus aureus S13E strain; format: functional

Compound	MIC [µg/mL]
CCOc1nn(C)c(SC2=C(C(=O)[O-])N3C(=O)[C@@H](NC(=O)/C(=N/OCCF)c4csc(N)n4)[C@H]3CC2)nc1=O.[Na+]	128
Nc1nc(/C(=N\OCCF)C(=O)N[C@@H]2C(=O)N3C(C(=O)[O-])=C(Sc4nccs4)CC[C@H]23)cs1.[Na+]	16
Nc1nc(/C(=N\OCCF)C(=O)N[C@@H]2C(=O)N3C(C(=O)[O-])=C(Sc4nc(-c5ccccc5)cs4)CC[C@H]23)cs1.[Na+]	4

tested on: Staphylococcus aureus; assay: In vitro antimicrobial activity against Staphylococcus aureus X400 strain; format: functional

Compound	MIC [µg/mL]
CCOc1nn(C)c(SC2=C(C(=O)[O-])N3C(=O)[C@@H](NC(=O)/C(=N/OCCF)c4csc(N)n4)[C@H]3CC2)nc1=O.[Na+]	> 128
Cn1ccnc1SC1=C(C(=O)[O-])N2C(=O)[C@@H](NC(=O)/C(=N/OCCF)c3csc(N)n3)[C@H]2CC1.[Na+]	> 128
Nc1nc(/C(=N\OCCF)C(=O)N[C@@H]2C(=O)N3C(C(=O)[O-])=C(Sc4nccs4)CC[C@H]23)cs1.[Na+]	64
Nc1nc(/C(=N\OCCF)C(=O)N[C@@H]2C(=O)N3C(C(=O)[O-])=C(Sc4nc(C(=O)O)cs4)CC[C@H]23)cs1.[Na+]	> 128
Nc1nc(/C(=N\OCCF)C(=O)N[C@@H]2C(=O)N3C(C(=O)[O-])=C(Sc4nc(-c5ccccc5)cs4)CC[C@H]23)cs1.[Na+]	4
Nc1nc(/C(=N\OCCF)C(=O)N[C@@H]2C(=O)N3C(C(=O)[O-])=C(Sc4nnc(O)c(O)n4)CC[C@H]23)cs1.[Na+]	> 128

tested on: Streptococcus pneumoniae; assay: In vitro antimicrobial activity against Streptococcus pneumoniae PARK strain; format: functional

Compound	MIC [µg/mL]
CCOc1nn(C)c(SC2=C(C(=O)[O-])N3C(=O)[C@@H](NC(=O)/C(=N/OCCF)c4csc(N)n4)[C@H]3CC2)nc1=O.[Na+]	0.03
Cn1ccnc1SC1=C(C(=O)[O-])N2C(=O)[C@@H](NC(=O)/C(=N/OCCF)c3csc(N)n3)[C@H]2CC1.[Na+]	< 0.008
Nc1nc(/C(=N\OCCF)C(=O)N[C@@H]2C(=O)N3C(C(=O)[O-])=C(Sc4nccs4)CC[C@H]23)cs1.[Na+]	< 0.008
Nc1nc(/C(=N\OCCF)C(=O)N[C@@H]2C(=O)N3C(C(=O)[O-])=C(Sc4nc(C(=O)O)cs4)CC[C@H]23)cs1.[Na+]	0.015
Nc1nc(/C(=N\OCCF)C(=O)N[C@@H]2C(=O)N3C(C(=O)[O-])=C(Sc4nc(-c5ccccc5)cs4)CC[C@H]23)cs1.[Na+]	< 0.008
Nc1nc(/C(=N\OCCF)C(=O)N[C@@H]2C(=O)N3C(C(=O)[O-])=C(Sc4nnc(O)c(O)n4)CC[C@H]23)cs1.[Na+]	0.06

tested on: Staphylococcus aureus; assay: In vitro antimicrobial activity against Staphylococcus aureus X1.1 strain; format: functional

Compound	MIC [µg/mL]
CCOc1nn(C)c(SC2=C(C(=O)[O-])N3C(=O)[C@@H](NC(=O)/C(=N/OCCF)c4csc(N)n4)[C@H]3CC2)nc1=O.[Na+]	0.5
Cn1ccnc1SC1=C(C(=O)[O-])N2C(=O)[C@@H](NC(=O)/C(=N/OCCF)c3csc(N)n3)[C@H]2CC1.[Na+]	4
Nc1nc(/C(=N\OCCF)C(=O)N[C@@H]2C(=O)N3C(C(=O)[O-])=C(Sc4nccs4)CC[C@H]23)cs1.[Na+]	0.25
Nc1nc(/C(=N\OCCF)C(=O)N[C@@H]2C(=O)N3C(C(=O)[O-])=C(Sc4nc(C(=O)O)cs4)CC[C@H]23)cs1.[Na+]	2
Nc1nc(/C(=N\OCCF)C(=O)N[C@@H]2C(=O)N3C(C(=O)[O-])=C(Sc4nc(-c5ccccc5)cs4)CC[C@H]23)cs1.[Na+]	0.125
Nc1nc(/C(=N\OCCF)C(=O)N[C@@H]2C(=O)N3C(C(=O)[O-])=C(Sc4nnc(O)c(O)n4)CC[C@H]23)cs1.[Na+]	4
